The structures appear in SMILES notation.

The target of the experiment is Histone deacetylase 2 (Homo sapiens, UniProt Q92769). Kind of experiment: Inhibition of full-length recombinant human C-terminal GST tagged HDAC2 expressed in Sf9 insect cells using aminoluciferin peptide substrate at 100 nM preincubated for 3 hrs followed by substrate addition and measured after 30 mins by HDAC-Glo I/II chemiluminescence assay. As to conditions: time 3.5 hrs.
Histone deacetylase 2, sequence (Q92769 whole entry): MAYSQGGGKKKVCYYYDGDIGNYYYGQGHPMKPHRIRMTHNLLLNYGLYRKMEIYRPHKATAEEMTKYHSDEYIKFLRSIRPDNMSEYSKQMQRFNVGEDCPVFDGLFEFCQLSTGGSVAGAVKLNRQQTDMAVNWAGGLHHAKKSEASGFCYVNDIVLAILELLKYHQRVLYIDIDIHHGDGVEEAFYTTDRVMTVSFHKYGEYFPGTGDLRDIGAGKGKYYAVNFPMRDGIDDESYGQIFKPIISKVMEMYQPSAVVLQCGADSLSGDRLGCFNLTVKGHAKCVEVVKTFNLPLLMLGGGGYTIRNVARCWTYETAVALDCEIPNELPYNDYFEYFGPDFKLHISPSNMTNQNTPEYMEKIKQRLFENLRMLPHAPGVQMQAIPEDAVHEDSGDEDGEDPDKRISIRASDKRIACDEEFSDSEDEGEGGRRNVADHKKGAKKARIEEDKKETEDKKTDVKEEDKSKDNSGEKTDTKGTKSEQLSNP
The term inhibition denotes the share of the control response that was lost under treatment. As to `Nc1ccc(-c2cccs2)cc1NC(=O)c1ccc(-c2cn(CCc3ccc([N+](=O)[O-])cc3)nn2)cc1`, the inhibition was found to be 42%.

In the case of `Nc1ccc(-c2ccc(F)cc2)cc1NC(=O)c1cn(CCC2CCCCC2)nn1`, the inhibition is 5%.

On to `Cc1ccc(-n2cc(CCC(=O)Nc3cc(-c4cccs4)ccc3N)nn2)cc1C`, for which the inhibition was 0%.

As to `Cc1ccccc1CCn1cc(C(=O)Nc2cc(-c3cccs3)ccc2N)nn1`, the inhibition is 0%.

Take `Nc1ccc(-c2ccsc2)cc1NC(=O)c1cn(CCC2CCCCC2)nn1`: the inhibition turned out to be 0%.

As for `Cc1ccccc1CCn1cc(CCC(=O)Nc2cc(-c3cccs3)ccc2N)nn1`, the inhibition came out at 13%.

Consider `Nc1ccc(-c2ccccc2)cc1NC(=O)c1cn(Cc2cc3ccccc3s2)nn1`, for which the inhibition turned out to be 0%.

On to `Nc1ccc(-c2cccnc2)cc1NC(=O)CCc1cn(C[S+]([O-])c2ccccc2)nn1` (configuration not stated), for which the inhibition was 0%.

In the case of `Nc1ccc(-c2cccnc2)cc1NC(=O)CCc1cn(Cc2ccc3ccccc3n2)nn1`, the inhibition turned out to be 3%.

Turning to `Nc1ccc(-c2ccccc2)cc1NC(=O)CCc1cn(CCc2cccc(C(F)(F)F)c2)nn1`, the inhibition came out at 1%.

On to `Nc1ccc(-c2ccccc2)cc1NC(=O)CCc1cn(CCCCCCCC(=O)O)nn1`, for which the inhibition was determined as 0%.

On to `Nc1ccc(-c2ccc(F)cc2)cc1NC(=O)CCc1cn(-c2ccccc2-c2ccccc2)nn1`, for which the inhibition was 8%.

For the compound `Nc1ccc(-c2ccsc2)cc1NC(=O)c1cn(Cc2cccc3ccccc23)nn1`, the inhibition worked out at 4%.

For the compound `Nc1ccc(-c2ccsc2)cc1NC(=O)CCc1cn(Cc2ccc(-c3ccccc3)cc2)nn1`, the inhibition is 0%.

As to `Nc1ccc(-c2ccsc2)cc1NC(=O)c1cn(CCc2ccc(F)cc2)nn1`, the inhibition amounted to 0%.

Regarding `Nc1ccc(-c2ccccc2)cc1NC(=O)c1cn(CCc2ccc(-c3ccccc3)cc2)nn1`, the inhibition was 0%.

Regarding `Nc1ccc(-c2cccs2)cc1NC(=O)CCc1cn(CCc2ccc(F)cc2)nn1`, the inhibition turned out to be 11%.

Take `Nc1ccc(-c2ccc(F)cc2)cc1NC(=O)c1cn(Cc2ccc(OC(F)(F)F)cc2)nn1`: the inhibition amounted to 0%.

On to `Nc1ccc(-c2cccs2)cc1NC(=O)c1cn(Cc2ccc(Oc3ccccc3)cc2)nn1`, for which the inhibition was 0%.

Regarding `Nc1ccc(-c2cccs2)cc1NC(=O)c1cn(CCc2c[nH]c3ccccc23)nn1`, the inhibition was 14%.

For the compound `Nc1ccc(-c2cccs2)cc1NC(=O)CCc1cn(C[S+]([O-])c2ccccc2)nn1` (configuration not stated), the inhibition came out at 17%.

As for `Nc1ccc(-c2ccc(F)cc2)cc1NC(=O)c1cn(CCCCC(=O)O)nn1`, the inhibition amounted to 22%.

As to `Nc1ccc(-c2cccs2)cc1NC(=O)c1cccc(-c2cn(CCc3ccsc3)nn2)c1`, the inhibition worked out at 0%.

As for `Nc1ccc(-c2ccc(F)cc2)cc1NC(=O)CCc1cn(CCc2ccc([N+](=O)[O-])cc2)nn1`, the inhibition stood at 20%.

As for `Nc1ccc(-c2cccs2)cc1NC(=O)CCc1cn(CC23CC4CC(CC(C4)C2)C3)nn1`, the inhibition amounted to 9%.

As to `Nc1ccc(-c2ccsc2)cc1NC(=O)CCc1cn(-c2cccc3ccccc23)nn1`, the inhibition was 0%.

For the compound `Nc1ccc(-c2cccs2)cc1NC(=O)c1cccc(-c2cn(CCc3ccccc3Cl)nn2)c1`, the inhibition turned out to be 0%.

Turning to `Nc1ccc(-c2cccs2)cc1NC(=O)c1cccc(-c2cn(CCc3ccccc3C(F)(F)F)nn2)c1`, the inhibition was found to be 2%.

Turning to `COc1ccc(CCn2cc(CCC(=O)Nc3cc(-c4ccsc4)ccc3N)nn2)cc1`, the inhibition amounted to 29%.

Regarding `Nc1ccc(-c2cccs2)cc1NC(=O)c1ccc(-c2cn(Cc3nc4ccccc4[nH]3)nn2)cc1`, the inhibition was 37%.

With `COc1ccc(Cn2cc(CCC(=O)Nc3cc(-c4cccnc4)ccc3N)nn2)cc1`, the inhibition stood at 10%.

As for `Cc1cccc(C)c1NC(=O)Cn1cc(CCC(=O)Nc2cc(-c3ccccc3)ccc2N)nn1`, the inhibition came out at 19%.

Turning to `Nc1ccc(-c2ccsc2)cc1NC(=O)c1cn(Cc2nc3ccccc3[nH]2)nn1`, the inhibition is 25%.

As to `Nc1ccc(-c2ccsc2)cc1NC(=O)c1cn(CCc2ccc(Cl)cc2)nn1`, the inhibition worked out at 0%.

As to `Nc1ccc(-c2cccs2)cc1NC(=O)c1cn(CC(=O)c2ccccc2)nn1`, the inhibition worked out at 15%.

For `Nc1ccc(-c2cccs2)cc1NC(=O)CCc1cn(Cc2cccc(-c3ccccc3)c2)nn1`, the inhibition is 0%.

In the case of `Cc1csc(CCn2cc(-c3cccc(C(=O)Nc4cc(-c5cccs5)ccc4N)c3)nn2)n1`, the inhibition came to 24%.

For `Nc1ccc(-c2ccsc2)cc1NC(=O)CCc1cn(CCc2ccccc2)nn1`, the inhibition was determined as 43%.

As to `COc1ccc(CCn2cc(C(=O)Nc3cc(-c4ccccc4)ccc3N)nn2)cc1`, the inhibition worked out at 0%.

In the case of `Nc1ccc(-c2ccccc2)cc1NC(=O)c1cn(-c2ccc(O)cc2)nn1`, the inhibition was determined as 0%.

Consider `Nc1ccc(-c2ccsc2)cc1NC(=O)c1cn(-c2cccc3ccccc23)nn1`, for which the inhibition amounted to 0%.

Regarding `Nc1ccc(-c2cccs2)cc1NC(=O)c1ccc(-c2cn(CCc3ccc(C(=O)O)cc3)nn2)cc1`, the inhibition is 46%.

For the compound `Nc1ccc(-c2cccs2)cc1NC(=O)c1cn(Cc2cc3ccccc3s2)nn1`, the inhibition stood at 8%.

Regarding `Nc1ccc(-c2cccs2)cc1NC(=O)c1cccc(-c2cn(Cc3ccc(Oc4ccccc4)cc3)nn2)c1`, the inhibition is 0%.

Regarding `COc1ccccc1CCn1cc(C(=O)Nc2cc(-c3ccsc3)ccc2N)nn1`, the inhibition was determined as 0%.

Take `Cc1cccc(C)c1NC(=O)Cn1cc(CCC(=O)Nc2cc(-c3cccnc3)ccc2N)nn1`: the inhibition was 11%.

For `Cc1cccc(CCn2cc(CCC(=O)Nc3cc(-c4cccnc4)ccc3N)nn2)c1`, the inhibition turned out to be 30%.

On to `Nc1ccc(-c2cccs2)cc1NC(=O)CCc1cn(Cc2cc3ccccc3s2)nn1`, for which the inhibition stood at 27%.

In the case of `Nc1ccc(-c2cccnc2)cc1NC(=O)CCc1cn(CCc2cccc(C(F)(F)F)c2)nn1`, the inhibition worked out at 13%.

For the compound `Nc1ccc(-c2ccsc2)cc1NC(=O)c1cn(CCC2CCCC2)nn1`, the inhibition came to 0%.

As to `Nc1ccc(-c2cccs2)cc1NC(=O)c1cn(CCC23CC4CC(CC(C4)C2)C3)nn1`, the inhibition was determined as 2%.

As to `Cc1ccc(-n2cc(C(=O)Nc3cc(-c4ccc(F)cc4)ccc3N)nn2)cc1C`, the inhibition is 11%.

`Cc1csc(CCn2cc(-c3ccc(C(=O)Nc4cc(-c5cccs5)ccc4N)s3)nn2)n1`: the inhibition is 74%.

In the case of `Nc1ccc(-c2cccs2)cc1NC(=O)c1cn(Cc2nc3ccccc3[nH]2)nn1`, the inhibition amounted to 20%.

With `Nc1ccc(-c2ccc(F)cc2)cc1NC(=O)c1cn(CCN2CCOCC2)nn1`, the inhibition was 10%.

Regarding `Cc1ccc(-n2cc(C(=O)Nc3cc(-c4ccsc4)ccc3N)nn2)cc1C`, the inhibition turned out to be 0%.

Turning to `Nc1ccc(-c2cccs2)cc1NC(=O)c1ccc(-c2cn(CCN3CCOCC3)nn2)s1`, the inhibition amounted to 69%.

Consider `Nc1ccc(-c2ccsc2)cc1NC(=O)CCc1cn(CCc2ccsc2)nn1`, for which the inhibition stood at 19%.

Turning to `Nc1ccc(-c2cccnc2)cc1NC(=O)CCc1cn(CCc2cccc(Cl)c2)nn1`, the inhibition was 30%.

Consider `Cc1cccc(CCn2cc(CCC(=O)Nc3cc(-c4cccs4)ccc3N)nn2)c1`, for which the inhibition came to 24%.

`Nc1ccc(-c2cccs2)cc1NC(=O)CCc1cn(CCC23CC4CC(CC(C4)C2)C3)nn1`: the inhibition is 5%.

Take `Nc1ccc(-c2cccs2)cc1NC(=O)c1cn(CCc2cccc(F)c2)nn1`: the inhibition was 0%.

The values above are taken from ChEMBL document CHEMBL5390237, “Discovery of Selective Histone Deacetylase 1 and 2 Inhibitors: Screening of a Focused Library Constructed by Click Chemistry, Kinetic Binding Analysis, and Biological Evaluation” (J Med Chem, 2023).
